Values after ≈ are worked out from the molar mass of the structure shown. Read-outs that look alike come from different tables or passages of the source.
Legend:
[1] = MTT cell viability run in parallel with the Tat-hybrid assay; type: cell-based; settings: human, Tat-hybrid reporter cell lines (HeLa); for CC50 at 48 h: Table 5, read-out: Tat hybrid TC50; for EC50 at 48 h: Table 6, second 'EC50' entry of the cell, values D/E
Summary of the method: (§1)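 HeLa reporter lines (Tat-hybrid) treated with compound for 48 hours, then luciferase luminescence measured. Cytotoxicity assessed in parallel by MTT viability; thienopyridines and diaminoacridine served as controls.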

[2] = system: HIV-1 provirus in U1 cells; experiment: U1 activation (latency) assay, p24 ELISA; type: cell-based
Procedure: (§2) U1 activation assay. U1 cells obtained from the AIDS Research and Reference Reagent Program were maintained under standard culture conditions in RPMI 1640 supplemented with 10% fetal bovine serum (heat inactivated), 2 mM L-glutamine, 100U/mL penicillin and 100 μg/mL streptomycin. U1 cells contain an integrated copy of a phorbol ester inducible HIV-1 provirus and addition of phytohemagglutinin (PHA) to the cell culture was used to induce virus production. On the day of the assay, the U1 cells were activated with PHA and 250,000 cells were plated in 96-well plates. Test compounds were diluted in media and applied to the cells at final concentrations from 1 to 10,000 nM. Cultures were incubated for 3 days and supernatants harvested. Cell-free virus production was measured by p24 ELISA on culture supernatant. Compound toxicity was determined by MTT cell-viability assay in parallel assays.

[3] = MTT cell viability in parallel with the U1 assay; type: cell-based; settings: human, U1 cells, read-out: U1 TC50
Procedure: as §2

HIV-1 isolate NL4-3 = experiment: Virus spreading / replication assay in Jurkat cells, p24 ELISA; type: cell-based
Procedure: (§3) Virus spreading assay. Jurkat (E6-1) cells (NIH AIDS Reagent Program) were cultured in RPMI media supplemented with 25 mM HEPES pH 7.4, 10% heat-inactivated fetal calf serum (Hyclone, Waltham Mass.), and 1% penicillin/streptomycin. 2.5×10^5 Jurkat cells were inoculated with 250 pg p24 in 250 μl media in a 96-well flat bottom polystyrene cell culture microplate. Input virus was removed after 18 hours via washing cells phosphate-buffered saline (PBS). Cells were resuspended in 250 μl of media containing compounds at the described concentrations. Cells were incubated at 37° C., 5% CO2 and supernatant samples were removed every 48 hours and replaced with fresh media containing the compounds. Viral replication was quantified using ELISA to quantify p24 viral capsid protein in the culture supernatant. Mouse monoclonal and rabbit polyclonal α-p24 antibodies used in the ELISA were obtained from the NIH AIDS Reagent Program. Toxicity was monitored using the MTT cell viability assay (Mosmann, T. (1983). J Immunol Methods 65, 55-63).

[4] = MTT cell viability in Jurkat replication assay; type: cell-based; settings: human, Jurkat (E6-1) cells, pH 7.4
Procedure: as §3

[5] = Aqueous solubility pH 7.4; type: physicochemical; settings: aqueous solution, pH 7.4, pH 7.4, aqueous buffer
Excerpt: (§4) We next evaluated analogs 2b, 2f, 4a, and 4e in a panel of standard in vitro ADME assays to assess drug-like properties and the potential for efficacy in animals.

Caco-2 permeability = type: in vitro ADME; settings: human
Excerpt: as §4

[6] = Human liver microsome stability; type: in vitro ADME; settings: human liver microsomes; read-out: HLM T1/2
Excerpt: The more lipophilic analogs 4a and 4e also appear more prone to oxidative metabolism in the presence of human liver microsomes. This is perhaps unsurprising given the presence of methoxyphenyl (4a) and benzylic methylene (4e) functions, both potential sites of oxidative metabolism.

[7] = system: Tat-hybrid reporter cell lines (HeLa); experiment: MTT cell viability run in parallel with the Tat-hybrid assay; type: cell-based; settings: Table 6; at 50,000 nM
Summary of the method: as §1

Jurkat cells = experiment: MTT cell viability in Jurkat replication assay; type: cell-based; settings: Table 5; read-out: Jurkat TC50
Procedure: as §3

Rev-RRE IIB interaction = target: T1, Rev-RRE IIB interaction (Human immunodeficiency virus type 1 group M subtype B, UniProt P04608+P04618); type: cell-based, HIV
T1 construct: with a fusion to HIV Rev (residues 3-70) was generated; expressed in transfected cells
T1 sequence (P04608 whole entry, looked up, the tested form may be a part): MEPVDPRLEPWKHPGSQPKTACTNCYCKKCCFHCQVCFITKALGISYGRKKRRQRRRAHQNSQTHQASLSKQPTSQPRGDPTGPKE
T1 sequence (P04618 whole entry, looked up, the tested form may be a part): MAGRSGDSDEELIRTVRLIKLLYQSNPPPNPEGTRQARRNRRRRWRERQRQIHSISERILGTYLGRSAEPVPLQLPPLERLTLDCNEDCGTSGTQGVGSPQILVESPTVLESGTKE
Procedure: A library of approximately 4500 carboxamide-containing compounds was assembled and tested in the reporter cell line at 30 μM. Reporter cells were plated in a white 96-well plate and compounds were added to the cells using a Biomek FX robotic liquid handler (Beckman Coulter). The cells were incubated with the compound for 48 hours then assayed for luciferase activity (Promega Bright Glo). The cytotoxicity of each compound was determined in parallel via MTT-based cell viability assays.
Cells were counted and plated into white 384-well or 96-well cell-culture treated assay plates and compounds were added. After 48 hours, the cells were prepared for luminescence assays that were performed on a plate reader (Tecan Evolution or MD Analyst). The cytotoxicity of each compound was determined in parallel via MTT-based cell viability assays.
Tat hybrid reporter assay. […] Previously characterized thienopyridines and diaminoacridine were used as controls. Cells were counted and plated into white 384-well cell-culture treated assay plates and compounds were added. After 48 hours, the cells were prepared for lumincescence assays that were performed on a plate reader (Tecan Evolution or MD Analyst). The cytotoxicity of each compound was determined in parallel via MTT-based cell viability assays.
The RRE IIB-Rev screening cell line was plated in 384-well assay plates and compounds were added to the cells to a final concentration of 30 μM. Cells were prepared and assayed for luciferase activity. […] In parallel, MTT cell viability assays were performed to assess the toxicity of compounds and minimize the level of false positives.

[8] = system: HIV RRE (Rev-dependent) reporter; experiment: Rev reporter assay in 293T cells, p24 ELISA; type: cell-based; settings: Human immunodeficiency virus 1, HEK-293T, Table 2
Procedure: Rev reporter assay. In the Rev reporter assay, 293T cells were transfected with an HIV RRE (Rev-dependent) reporter plus a pSV2 Rev expression plasmid (Hope, T. J., et al. (1990) Proc. Natl. Acad. Sci. USA 87, 7787-7791). Compounds were incubated with the cells for 48 hours and reporter activity was assessed by p24 ELISA. Leptomycin B, an inhibitor of the Crm1 pathway that inhibits Rev-dependent export, was included as a control. The cytotoxicity of each compound was determined in parallel via MTT-based cell viability assays.

[9] = target: T2, HIV RRE IIB Luciferase reporter with HIV Tat (1-48)-Rev 3-70 (Human immunodeficiency virus type 1 group M subtype B, UniProt P04608+P04618); experiment: Tat-hybrid transient reporter assay in 293T cells, RRE IIB reporter; type: cell-based; settings: 100 nM compound; 293T transient transfection
T2 construct: HIV Tat (1-48)-Rev 3-70 expression construct; expressed in transfected cells; host or cells: 293T, transient transfection
T2 sequence (P04608 whole entry, looked up): as the sequence (P04608 whole entry, looked up, the tested form may be a part) above
T2 sequence (P04618 whole entry, looked up): as the sequence (P04618 whole entry, looked up, the tested form may be a part) above
Procedure: (§5) Testing the specificity of the thienopyridine compounds using the Tat-hybrid reporter system.
(§6) A 96 well plate was seeded with 10,000 293T cells. We transfected each well with 10 ng of the HIV TAR Luciferase reporter and 5 ng of the HIV Tat 1-72 expression construct or 10 ng of the HIV RRE IIB Luciferase reporter and 5 ng of the HIV Tat (1-48)-Rev 3-70 expression construct, and with 2 ng of a CMV Renilla luciferase control. Compound 4a was added to a final concentration of 3.16, 10, 31.6, and 100 nM. Each condition was performed in quadruplet. Note, it was necessary to use transient transfection assays rather than stable cell lines in order to compare the two reporter systems, although the level of inhibition conferred by the compounds in the transient assays was lower than in the cell lines. The cells were incubated for 48 hours and dual luciferase assays were performed according to the manufacturers protocol (Promega). Reporter activity was normalized against the Renilla control.

[10] = target: T3, HIV TAR Luciferase reporter with HIV Tat 1-72 (Human immunodeficiency virus type 1 group M subtype B, UniProt P04608); experiment: Tat-hybrid transient reporter assay in 293T cells, TAR reporter; type: cell-based; settings: 100 nM compound; 293T transient transfection
T3 construct: 5 ng of the HIV Tat 1-72 expression construct; expressed in transfected cells; host or cells: 293T, transient transfection
T3 sequence (P04608 1-72): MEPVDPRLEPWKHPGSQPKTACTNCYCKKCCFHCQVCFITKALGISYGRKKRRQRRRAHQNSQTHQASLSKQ
Procedure: as §5, §6

[11] = Human immunodeficiency virus 1, Table 5, read-out: U1 IC50
[12] = Human immunodeficiency virus 1, NL43, Jurkat, Table 5, read-out: Jurkat replication IC50
[13] = Human immunodeficiency virus 1, read-out: U1 cell IC50 (nM)
[14] = Human immunodeficiency virus 1, Table 6, read-out: U1 IC50
[15] = Human immunodeficiency virus 1, NL43, Jurkat, Table 2, NL4-3, read-out: Jurkat HIV-1 replication assay

## CC(=O)N1CCN(c2cncc3sc(C(N)=O)c(N)c23)CC1 [drawing 144]
[1]
  CC50 at 48 h: > 40000 nM
[2]; [11]
  IC50: 100 to 500 nM
[3]; Table 5
  CC50 at 3 days: > 40000 nM
HIV-1 isolate NL4-3; [12]
  IC50: > 500 nM
[4]; Table 5, read-out: Jurkat TC50
  CC50: > 40000 nM

## CC(=O)N1CCN(c2cncc3sc(C(N)=O)c(N)c23)CC1 [Compound 2f, 4-(4-acetylpiperazin-1-yl)-3-aminothieno[2,3-c]pyridine-2-carboxamide]
[2]; [13]
  IC50: 100 to 500 nM
HIV-1 isolate NL4-3; Human immunodeficiency virus 1, NL43, Jurkat, Table 1, read-out: Jurkat HIV-1 replication assay
  IC50: > 500 nM
[5]
  solubility: 258 µM (≈ 82.4 µg/mL)
Caco-2 permeability
  Papp: 9.7 ×10⁻⁶ cm/s
[6]
  half-life: > 60 min

## Cc1cc(C)c2c(N)c(C(N)=O)sc2n1
[1]
  EC50 at 48 h: > 40000 nM
[7]
  Tat hybrid cell viability at 50,000 nM: Z (Z = <30%)
[2]; [14]
  IC50: > 500 nM
[3]; Table 6
  CC50 at 3 days: > 40000 nM

## COCc1cc(C)nc2sc(C(N)=O)c(N)c12
[1]
  EC50 at 48 h: > 40000 nM
[7]
  Tat hybrid cell viability at 50,000 nM: X (X = >60%)
[2]; [14]
  IC50: > 500 nM
[3]; Table 6
  CC50 at 3 days: > 40000 nM

## NC(=O)c1sc2cncc(N3CCCCC3)c2c1N [drawing 134]
[1]
  CC50 at 48 h: > 40000 nM
[2]; [11]
  IC50: < 100 nM
[3]; Table 5
  CC50 at 3 days: < 40000 nM
HIV-1 isolate NL4-3; [12]
  IC50: < 100 nM
Jurkat cells
  CC50: > 40000 nM

## NC(=O)c1cc2c(-c3ccc4ccccc4c3)cncc2s1
[1]
  CC50 at 48 h: > 40000 nM
[2]; [11]
  IC50: < 100 nM
[3]; Table 5
  CC50 at 3 days: < 40000 nM
HIV-1 isolate NL4-3; [12]
  IC50: < 100 nM
[4]; Table 5, read-out: Jurkat TC50
  CC50: < 40000 nM

## NC(=O)c1sc2cncc(N3CCCCC3)c2c1N [Compound 2b, 3-amino-4-(piperidin-1-yl)thieno[2,3-c]pyridine-2-carboxamide]
[2]; [13]
  IC50: < 100 nM
[2]; Human immunodeficiency virus 1, read-out: IC50 in the U1 assay
  IC50: 28 nM
HIV-1 isolate NL4-3; [15]
  IC50: < 100 nM
HIV-1 isolate NL4-3; Human immunodeficiency virus 1, NL43, Jurkat, read-out: IC50 in the HIV replication assay
  IC50: 76.8 nM
HIV-1 isolate NL4-3; Table 1, read-out: Jurkat HIV-1 replication assay
  IC50: < 100 nM
[4]; Jurkat infectivity assay, read-out: TC50 (MTT cell viability)
  CC50: > 40000 nM
[5]
  solubility: 34 µM (≈ 9.4 µg/mL)
Caco-2 permeability
  Papp: 50.5 ×10⁻⁶ cm/s
[6]
  half-life: 28 min

## NC(=O)c1sc2nc3c(c(-c4ccco4)c2c1N)CCCC3
[1]
  EC50 at 48 h: > 40000 nM
[7]
  Tat hybrid cell viability at 50,000 nM: X (X = >60%)
[2]; [14]
  IC50: > 500 nM
[3]; Table 6
  CC50 at 3 days: < 40000 nM

## CCc1c(C)nc2sc(C(N)=O)c(N)c2c1C
[1]
  EC50 at 48 h: > 40000 nM
[7]
  Tat hybrid cell viability at 50,000 nM: Y (Y = 30-60%)
[2]; [14]
  IC50: > 500 nM
[3]; Table 6
  CC50 at 3 days: > 40000 nM

## NC(=O)c1sc2nccc(Nc3ccccc3)c2c1N
[1]
  EC50 at 48 h: > 40000 nM
[7]
  Tat hybrid cell viability at 50,000 nM: Y (Y = 30-60%)
[2]; [14]
  IC50: 100 to 500 nM
[3]; Table 6
  CC50 at 3 days: > 40000 nM

## NC(=O)c1cc2c(-c3ccc4c(c3)CCO4)cncc2s1 [drawing 128]
[1]
  CC50 at 48 h: > 40000 nM
[2]; [11]
  IC50: < 100 nM
[3]; Table 5
  CC50 at 3 days: < 40000 nM
HIV-1 isolate NL4-3; [12]
  IC50: < 100 nM
Jurkat cells
  CC50: < 40000 nM

## COc1ccc(-c2cncc3sc(C(N)=O)cc23)cc1 [drawing 129]
[1]
  CC50 at 48 h: < 40000 nM
[2]; [11]
  IC50: < 100 nM
[3]; Table 5
  CC50 at 3 days: < 40000 nM
HIV-1 isolate NL4-3; [12]
  IC50: < 100 nM
[4]; Table 5, read-out: Jurkat TC50
  CC50: < 40000 nM

## COc1ccc(-c2cncc3sc(C(N)=O)cc23)cc1 [Compound 4a, 4-(4-methoxyphenyl)thieno[2,3-c]pyridine-2-carboxamide]
Rev-RRE IIB interaction
  activity in the Tat-hybrid reporter assay: low-nM potency
[2]
  potency in the U1 assay: low-nM potency
[2]; Human immunodeficiency virus 1, Table 2, read-out: U1 cell IC50
  IC50: < 100 nM
HIV-1 isolate NL4-3; [15]
  IC50: < 100 nM
[8]
  EC50: 100 to 500 nM
[5]
  solubility: 0.44 µM (≈ 0.125 µg/mL)
Caco-2 permeability
  Papp: 59.4 ×10⁻⁶ cm/s
[6]
  half-life: 8 min
[9]
  expression of the HIV RRE IIb reporter: significantly inhibited
[10]
  expression of the HIV TAR reporter: not similarly inhibited

## NC(=O)c1cc2c(-c3cnc4ccccc4c3)cncc2s1
[1]
  CC50 at 48 h: > 40000 nM
[2]; [11]
  IC50: < 100 nM
[3]; Table 5
  CC50 at 3 days: > 40000 nM
HIV-1 isolate NL4-3; [12]
  IC50: < 100 nM
[4]; Table 5, read-out: Jurkat TC50
  CC50: > 40000 nM
